Data on ten compounds can be found in paper PMC4503722, “Novel Phenotypic Outcomes Identified for a Public Collection of Approved Drugs from a Publicly Accessible Panel of Assays” (PLoS ONE, 2015).

Like-named read-outs stand apart in the source and are kept apart here.

Assay [1] concerns endothelial tube formation in co-cultures of ECFCs and ADSCs treated with VEGF. Kind of assay: cells. The class given is cell-based, human. The following applies: for IC50: read-out: VEGF_ADSC\ECFC Angio CD31 TubeArea summarized IC50.
Another assay has as its system HeLa cells. Kind of assay: cells. The class given is cell-based.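 As to Hela CellCycMod PI 4N summarized IC50: value tracks stimulation of 4N DNA content.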
In assay [2] the test system is ECFC/ADSC co-culture cell nuclei number. The following applies: for IC50: read-out: VEGF_ADSC\ECFC Angio Hoechst NucArea summarized IC50.
Where [3] appears, read: assay number 14, 2N, read-out: Hela CellCycMod PI 2N summarized IC50.
Setting [4] is: assay number 16, 4N, read-out: Hela CellCycMod PI 4N summarized IC50.
Setting [5] is: assay number 17, MI, read-out: Hela CellCycMod PI MI summarized IC50.
The mark [6] stands for this setting: assay number 18, cell number, read-out: Hela CellCycMod PI Cell Number summarized IC50.

Consider `O=C(O)CCCc1ccc(N(CCCl)CCCl)cc1` [NCGC00015199-20], for which the “IC50/EC50, VEGF_ADSC\ECFC Angio CD31 TubeArea (assay number 2)” value in assay [1] was determined as 1.2446 µM. Moreover, the “IC50/EC50, Hela CellCycMod PI 2N (assay number 14)” value in the assay with HeLa cells (2N) was greater than 10 µM. In addition, the “IC50/EC50, Hela CellCycMod PI 4N (assay number 16)” value in the assay with HeLa cells (4N) is listed as greater than 10 µM. Moreover, in the assay with HeLa cells, the “IC50/EC50, Hela CellCycMod PI Cell Number (assay number 18)” value was greater than 10 µM and the “IC50/EC50, Hela CellCycMod PI S Phase (assay number 15)” value amounted to 2.1921 µM. Besides, the “IC50/EC50, Hela CellCycMod PI MI (assay number 17)” value in the assay with HeLa cells (MI) is greater than 10 µM. The “IC50/EC50, VEGF_ADSC\ECFC Angio Hoechst NucArea (assay number 3)” value in assay [2] is given as greater than 10 µM.

As for `COc1ccc(Cc2nccc3cc(OC)c(OC)cc23)cc1OC` [NCGC00015810-12], the IC50 in assay [1] is 7.8 µM; in the assay on HeLa cells (setting [3]), greater than 10 µM; in the assay with HeLa cells (setting [4]) it was greater than 10 µM; in the assay with HeLa cells (setting [5]), greater than 10 µM; in the assay with HeLa cells (setting [6]) it was greater than 10 µM; in assay [2] it was greater than 10 µM.

Regarding `COc1ccc2cc3[n+](cc2c1OC)CCc1cc2c(cc1-3)OCO2` [NCGC00016526-07], the “VEGF_ADSC\ECFC Angio CD31 TubeArea IC50/EC50” value in assay [1] was found to be 2.6815 µM. The “Hela CellCycMod PI 2N IC50/EC50” value in the assay with HeLa cells (assay number 14, 2N) was greater than 10 µM. The “Hela CellCycMod PI 4N IC50/EC50” value in the assay with HeLa cells (assay number 16, 4N) is greater than 10 µM. In addition, the “Hela CellCycMod PI MI IC50/EC50” value with HeLa cells (assay number 17, MI) is recorded as greater than 10 µM. In the assay with HeLa cells (assay number 18, cell number), the “Hela CellCycMod PI Cell Number IC50/EC50” value was greater than 10 µM. In addition, in assay [2], the “VEGF_ADSC\ECFC Angio Hoechst NucArea IC50/EC50” value is listed as greater than 10 µM.

`O=c1[nH]c(=O)n([C@H]2C[C@H](O)[C@@H](CO)O2)cc1Br` [NCGC00090770-09]: in assay [1], the “VEGF_ADSC\ECFC Angio CD31 TubeArea IC50/EC50” value is listed as 3.8464 µM. For the same compound, in the assay on HeLa cells (assay number 14, 2N), the “Hela CellCycMod PI 2N IC50/EC50” value is greater than 10 µM. Moreover, in the assay with HeLa cells (assay number 15, S phase), the “Hela CellCycMod PI S Phase IC50/EC50” value is on record as greater than 10 µM. In addition, the “Hela CellCycMod PI 4N IC50/EC50” value in the assay with HeLa cells (assay number 16, 4N) is greater than 10 µM. Besides, the “Hela CellCycMod PI MI IC50/EC50” value in the assay with HeLa cells (assay number 17, MI) is recorded as greater than 10 µM. Moreover, the “Hela CellCycMod PI Cell Number IC50/EC50” value in the assay on HeLa cells (assay number 18, cell number) is greater than 10 µM. Besides, the “VEGF_ADSC\ECFC Angio Hoechst NucArea IC50/EC50” value in assay [2] is greater than 10 µM.

Turning to `CC(=O)Oc1ccccc1C(=O)Nc1ncc([N+](=O)[O-])s1` [NCGC00090774-05], the “VEGF_ADSC\ECFC Angio CD31 TubeArea IC50/EC50” value in assay [1] is on record as 2.0612 µM. In addition, the “Hela CellCycMod PI 2N IC50/EC50” value in the assay with HeLa cells (assay number 14, 2N) is listed as greater than 10 µM. Besides, in the assay with HeLa cells (assay number 15, S phase), the “Hela CellCycMod PI S Phase IC50/EC50” value is greater than 10 µM. Moreover, in the assay with HeLa cells (assay number 16, 4N), the “Hela CellCycMod PI 4N IC50/EC50” value is reported as greater than 10 µM. Besides, in the assay on HeLa cells (assay number 17, MI), the “Hela CellCycMod PI MI IC50/EC50” value is greater than 10 µM. Further, the “Hela CellCycMod PI Cell Number IC50/EC50” value in the assay with HeLa cells (assay number 18, cell number) is recorded as greater than 10 µM. For the same compound, the “VEGF_ADSC\ECFC Angio Hoechst NucArea IC50/EC50” value in assay [2] is given as greater than 10 µM.

Take `O=C1c2c(O)cccc2Cc2cccc(O)c21` [NCGC00091330-07]: the IC50 in assay [1] was 0.604 µM; with HeLa cells (setting [3]), greater than 10 µM; in the assay with HeLa cells (assay number 15, S phase, read-out: Hela CellCycMod PI S Phase summarized IC50) it was greater than 10 µM; in the assay with HeLa cells (setting [4]), greater than 10 µM; in the assay on HeLa cells (setting [5]), greater than 10 µM; in the assay on HeLa cells (setting [6]), greater than 10 µM. Besides, the IC50 in assay [2] is greater than 10 µM.

Regarding `CN(C)/N=N/c1nc[nH]c1C(N)=O` [NCGC00091861-07], the “IC50/EC50, VEGF_ADSC\ECFC Angio CD31 TubeArea (assay number 2)” value in assay [1] is reported as 4.5862 µM. Besides, in the assay with HeLa cells (2N), the “IC50/EC50, Hela CellCycMod PI 2N (assay number 14)” value is recorded as greater than 10 µM. Besides, the “IC50/EC50, Hela CellCycMod PI 4N (assay number 16)” value in the assay with HeLa cells (4N) was greater than 10 µM. Further, in the assay with HeLa cells, the “IC50/EC50, Hela CellCycMod PI Cell Number (assay number 18)” value was greater than 10 µM and the “IC50/EC50, Hela CellCycMod PI S Phase (assay number 15)” value is greater than 10 µM. For the same compound, the “IC50/EC50, Hela CellCycMod PI MI (assay number 17)” value in the assay on HeLa cells (MI) is on record as greater than 10 µM. For the same compound, the “IC50/EC50, VEGF_ADSC\ECFC Angio Hoechst NucArea (assay number 3)” value in assay [2] is greater than 10 µM.

`O=C(CCBr)N1CCN(C(=O)CCBr)CC1` [NCGC00095048-06]: the “VEGF_ADSC\ECFC Angio CD31 TubeArea IC50/EC50” value in assay [1] is 1.3723 µM. Besides, the “Hela CellCycMod PI 2N IC50/EC50” value with HeLa cells (assay number 14, 2N) is recorded as greater than 10 µM. Also, the “Hela CellCycMod PI S Phase IC50/EC50” value in the assay with HeLa cells (assay number 15, S phase) is greater than 10 µM. The “Hela CellCycMod PI 4N IC50/EC50” value in the assay on HeLa cells (assay number 16, 4N) is on record as greater than 10 µM. In addition, the “Hela CellCycMod PI MI IC50/EC50” value in the assay with HeLa cells (assay number 17, MI) was greater than 10 µM. Besides, the “Hela CellCycMod PI Cell Number IC50/EC50” value in the assay on HeLa cells (assay number 18, cell number) is greater than 10 µM. Besides, the “VEGF_ADSC\ECFC Angio Hoechst NucArea IC50/EC50” value in assay [2] is greater than 10 µM.

Consider `C1CN(P2(N3CC3)=NP(N3CC3)(N3CC3)=NP(N3CC3)(N3CC3)=N2)CCO1` (stereo not shown) [NCGC00160420-02], for which the “VEGF_ADSC\ECFC Angio CD31 TubeArea IC50/EC50” value in assay [1] came to 3.6152 µM. The “Hela CellCycMod PI 2N IC50/EC50” value with HeLa cells (assay number 14, 2N) was greater than 10 µM. Besides, the “Hela CellCycMod PI S Phase IC50/EC50” value in the assay on HeLa cells (assay number 15, S phase) is greater than 10 µM. In addition, the “Hela CellCycMod PI 4N IC50/EC50” value in the assay with HeLa cells (assay number 16, 4N) was greater than 10 µM. Besides, the “Hela CellCycMod PI MI IC50/EC50” value with HeLa cells (assay number 17, MI) is recorded as greater than 10 µM. In addition, the “Hela CellCycMod PI Cell Number IC50/EC50” value with HeLa cells (assay number 18, cell number) is greater than 10 µM. Moreover, the “VEGF_ADSC\ECFC Angio Hoechst NucArea IC50/EC50” value in assay [2] was greater than 10 µM.

As for `COc1ccc(/C=C/C(=O)c2ccc(OC)cc2OC)cc1` [NCGC00160442-03], the “VEGF_ADSC\ECFC Angio CD31 TubeArea IC50/EC50” value in assay [1] amounted to 6.6604 µM. For the same compound, the “Hela CellCycMod PI 2N IC50/EC50” value with HeLa cells (assay number 14, 2N) was greater than 10 µM. Also, the “Hela CellCycMod PI 4N IC50/EC50” value in the assay with HeLa cells (assay number 16, 4N) was greater than 10 µM. Also, the “Hela CellCycMod PI MI IC50/EC50” value in the assay with HeLa cells (assay number 17, MI) was greater than 10 µM. The “Hela CellCycMod PI Cell Number IC50/EC50” value in the assay with HeLa cells (assay number 18, cell number) was determined as 0.7082 µM. Further, in assay [2], the “VEGF_ADSC\ECFC Angio Hoechst NucArea IC50/EC50” value was greater than 10 µM.
